Converted amounts (≈) assume the structure as drawn. Blank lines part the entries; values can stand above or below the compound they belong to.
Assays:
Assay type in all cases: functional
Escherichia coli [1] = assay: Antibacterial activity against Escherichia coli ATCC 8739
Pseudomonas aeruginosa [2] = assay: Antibacterial activity against Pseudomonas aeruginosa ATCC 9027
Staphylococcus aureus [3] = assay: Antibacterial activity against Staphylococcus aureus ATCC 6538P
Candida albicans = assay: Antifungal activity against Candida albicans assessed as fungal growth inhibition
Aspergillus niger = assay: Antifungal activity against Aspergillus niger assessed as fungal growth inhibition
Staphylococcus aureus [4] = assay: Antibacterial activity against Staphylococcus aureus assessed as diameter of inhibition zone incubated for 24 hrs by […]
Staphylococcus aureus [5] = assay: Antibacterial activity against Staphylococcus aureus assessed as reduction in bacterial growth incubated for 24 hrs by broth microdilution method
Enterococcus faecium = assay: Antibacterial activity against Enterococcus faecium ATCC 700221
Enterococcus faecalis = assay: Antibacterial activity against Enterococcus faecalis assessed as bacterial growth inhibition
Staphylococcus aureus [6] = assay: Antibacterial activity against methicillin-resistant Staphylococcus aureus assessed as reduction in microbial growth incubated for 18 to 24 hrs by serial dilution method; settings: time 18-24 hrs
Staphylococcus aureus [7] = assay: Antibacterial activity against methicillin-sensitive Staphylococcus aureus assessed as reduction in microbial growth incubated for 18 to 24 hrs by serial dilution method; settings: time 18-24 hrs
[8] = test system: Staphylococcus epidermidis; assay: Antibacterial activity against Methicillin-resistant Staphylococcus epidermidis assessed as bacterial growth inhibition
[9] = test system: Staphylococcus epidermidis; assay: Antibacterial activity against Methicillin-sensitive Staphylococcus epidermidis assessed as bacterial growth inhibition
Staphylococcus aureus [10] = assay: Antibacterial activity against Staphylococcus aureus assessed as reduction in microbial growth incubated for 18 to 24 hrs by serial dilution method; settings: time 18-24 hrs
Staphylococcus aureus [11] = assay: Antibacterial activity against Staphylococcus aureus NCIM-2079 by CLSI based microdilution assay
Bacillus cereus [12] = assay: Antibacterial activity against Bacillus cereus NCIM-2156 by CLSI based microdilution assay
Proteus vulgaris [13] = assay: Antibacterial activity against Proteus vulgaris NCIM-2027 by CLSI based microdilution assay
Bacillus subtilis [14] = assay: Antibacterial activity against Bacillus subtilis NCIM-2063 by CLSI based microdilution assay
Escherichia coli [15] = assay: Antibacterial activity against Escherichia coli NCIM-2065 by CLSI based microdilution assay
Staphylococcus aureus [16] = assay: Antibacterial activity against Staphylococcus aureus assessed as reduction in bacterial growth by broth microdilution method
Escherichia coli [17] = assay: Antibacterial activity against Escherichia coli assessed as diameter of inhibition zone at 100 microg/ml incubated for 18 to 24 hrs by disc-diffusion method; settings: time 18-24 hrs, read-out: DIZ
Bacillus subtilis [18] = assay: Antibacterial activity against Bacillus subtilis assessed as diameter of inhibition zone at 100 microg/ml incubated for 18 to 24 hrs by disc-diffusion method; settings: time 18-24 hrs, read-out: DIZ
Staphylococcus aureus [19] = assay: Antibacterial activity against Staphylococcus aureus assessed as diameter of inhibition zone at 100 microg/ml incubated for 18 to 24 hrs by disc-diffusion method; settings: time 18-24 hrs, read-out: DIZ
Proteus vulgaris [20] = assay: Antibacterial activity against Proteus vulgaris NCIM 2027 assessed as reduction in bacterial growth incubated for 18 to 24 hrs by broth microdilution method; settings: time 18-24 hrs
Klebsiella pneumoniae = assay: Antibacterial activity against Klebsiella pneumoniae assessed as inhibition of bacterial growth
Pseudomonas aeruginosa [21] = assay: Antibacterial activity against Pseudomonas aeruginosa assessed as reduction in bacterial growth
Bacillus subtilis [22] = assay: Antibacterial activity against Bacillus subtilis NCIM 2063 assessed as reduction in bacterial growth incubated for 18 to 24 hrs by broth microdilution method; settings: time 18-24 hrs
Staphylococcus aureus [23] = assay: Antibacterial activity against Staphylococcus aureus
Staphylococcus aureus [24] = assay: Antibacterial activity against Staphylococcus aureus assessed as inhibition of bacterial growth
Staphylococcus aureus [25] = assay: Antibacterial activity against Staphylococcus aureus MTCC 3160 assessed as reduction in bacterial growth
Proteus mirabilis = assay: Antibacterial activity against Proteus mirabilis NCIM 2241 assessed as reduction in bacterial growth incubated for 18 to 24 hrs by broth microdilution method; settings: time 18-24 hrs
Bacillus cereus [26] = assay: Antibacterial activity against Bacillus cereus NCIM 2156 assessed as reduction in bacterial growth incubated for 18 to 24 hrs by broth microdilution method; settings: time 18-24 hrs
Bacillus subtilis [27] = assay: Antibacterial activity against Bacillus subtilis assessed as reduction in bacterial growth
Escherichia coli [28] = assay: Antibacterial activity against Escherichia coli assessed as reduction in bacterial growth
Bacillus subtilis [29] = assay: Antibacterial activity against Bacillus subtilis MTTC 441 assessed as reduction in bacterial growth

SMILES: CN[C@H](CC(C)C)C(=O)N[C@H]1C(=O)N[C@@H](CC(N)=O)C(=O)N[C@H]2C(=O)N[C@H]3C(=O)N[C@H](C(=O)N[C@H](C(=O)O)c4cc(O)cc(O)c4-c4cc3ccc4O)[C@H](O)c3ccc(c(Cl)c3)Oc3cc2cc(c3O[C@@H]2O[C@H](CO)[C@@H](O)[C@H](O)[C@H]2O[C@H]2C[C@](C)(N)[C@H](O)[C@H](C)O2)Oc2ccc(cc2Cl)[C@H]1O [VANCOMYCIN]
MIC (Enterococcus faecium): > 88.3 µM
MIC (Enterococcus faecalis): 0.5 µg/mL (≈ 0.345 µM)
MIC (Staphylococcus aureus [6]): 0.25 µg/mL
MIC (Staphylococcus aureus [7]): 0.25 µg/mL
MIC [8]: 0.5 µg/mL (≈ 0.345 µM)
MIC [9]: 0.5 µg/mL (≈ 0.345 µM)
MIC (Staphylococcus aureus [10]): 0.25 µg/mL

SMILES: O=C(CNN1C(=O)CSC1c1ccc(-c2ccc(F)cc2)cc1)NN1C(c2ccc([N+](=O)[O-])cc2)=NNC1S (stereo unspecified)
MIC (Staphylococcus aureus [11]): 3.12 µg/mL (≈ 5.51 µM)
MIC (Bacillus cereus [12]): 3.12 µg/mL (≈ 5.51 µM)
MIC (Proteus vulgaris [13]): 3.12 µg/mL (≈ 5.51 µM)
MIC (Bacillus subtilis [14]): 3.12 µg/mL (≈ 5.51 µM)
MIC (Escherichia coli [15]): 3.12 µg/mL (≈ 5.51 µM)

SMILES: CCn1cc(C(=O)O)c(=O)c2cc(F)c(N3CCNCC3)cc21 [NORFLOXACIN]
MIC (Escherichia coli [1]): 0.125 µg/mL (≈ 0.391 µM)
MIC (Pseudomonas aeruginosa [2]): 0.125 µg/mL (≈ 0.391 µM)
MIC (Staphylococcus aureus [3]): 0.125 µg/mL (≈ 0.391 µM)

SMILES: Sc1nncn1/N=C/c1cccc(Oc2ccccc2)c1
zone of inhibition at 100 µg/mL (Escherichia coli [17]): 15 mm
zone of inhibition at 100 µg/mL (Bacillus subtilis [18]): 15 mm
zone of inhibition at 100 µg/mL (Staphylococcus aureus [19]): 15 mm

SMILES: O=C(O)c1cn(C2CC2)c2cc(N3CCNCC3)c(F)cc2c1=O [CIPROFLOXACIN]
MIC (Proteus vulgaris [20]): 12.5 µg/mL (≈ 37.7 µM)
MIC (Klebsiella pneumoniae): 16 µg/mL (≈ 48.3 µM)
MIC (Pseudomonas aeruginosa [21]): 18 µg/mL (≈ 54.3 µM)
MIC (Bacillus subtilis [22]): 12.5 µg/mL (≈ 37.7 µM)
MIC (Staphylococcus aureus [23]): 9 µM (≈ 2.98 µg/mL)
MIC (Staphylococcus aureus [24]): 8 µg/mL (≈ 24.1 µM)
MIC (Staphylococcus aureus [25]): 9 µM (≈ 2.98 µg/mL)
MIC (Proteus mirabilis): 12.5 µg/mL (≈ 37.7 µM)
MIC (Bacillus cereus [26]): 3.12 µg/mL (≈ 9.43 µM)
MIC (Bacillus subtilis [27]): 18 µg/mL (≈ 54.3 µM)

SMILES: CCCCCCCCCCCCCCCc1nnc(S)n1/N=C\c1cc(OC)c(OC)c(OC)c1
MIC (Pseudomonas aeruginosa [21]): 12.3 µg/mL (≈ 24.4 µM)
MIC (Bacillus subtilis [27]): 24.7 µg/mL (≈ 48.9 µM)
MIC (Escherichia coli [28]): 24.7 µg/mL (≈ 48.9 µM)

Continued, in another order:

MIC (Escherichia coli [1]): 0.125 µg/mL (≈ 0.203 µM)
MIC (Pseudomonas aeruginosa [2]): 0.125 µg/mL (≈ 0.203 µM)
MIC (Staphylococcus aureus [3]): 0.125 µg/mL (≈ 0.203 µM)
SMILES: CCn1cc(C(=O)O)c(=O)c2cc(F)c(N3CCN(Cn4nc(-c5ccncc5)n(-c5ccc(OC)cc5)c4=S)CC3)cc21

MIC (Candida albicans): 125 µM (≈ 62.2 µg/mL)
MIC (Aspergillus niger): 125 µM (≈ 62.2 µg/mL)
SMILES: Cc1ccc(NC(=O)Cn2cc(COc3ccc(C(=O)/C=C/c4ccc([N+](=O)[O-])cc4)cc3)nn2)cc1

MIC (Staphylococcus aureus [5]): 7.23 µg/mL (≈ 10.6 µM)
SMILES: O=c1cc(OCCn2cc(Cn3cc(Cl)c(=O)n(Cc4cn(CCOc5cc(=O)oc6ccccc56)nn4)c3=O)nn2)c2ccccc2o1
diameter of the inhibition zone (DIZ) (Staphylococcus aureus [4]): 26 mm

MIC (Staphylococcus aureus [16]): 25 µg/mL (≈ 31.8 µM)
SMILES: CC(C)Cc1ccc(C(C)C(=O)NC(Cc2cn(Cc3cn(CC(=O)Nc4ccccc4Cl)nn3)c3ccccc23)C(=O)NC(Cc2ccccc2)C(N)=O)cc1 (stereo unspecified)

MIC (Bacillus subtilis [29]): 12 µM (≈ 6.1 µg/mL)
MIC (Staphylococcus aureus [25]): 6 µM (≈ 3.05 µg/mL)
SMILES: O=C(Cn1cc(COc2cccc(/C=N/c3ccc(F)cc3)c2)nn1)Nc1ccc(Br)cc1
